Measured values taken from paper PMC8550792, “Evolution of kinase polypharmacology across HSP90 drug discovery” (Cell Chemical Biology, 2021).
Like-named read-outs stand apart in the source and are kept apart here.

Key:
[1] = biological target: T1, ABL2/ARG (Homo sapiens, UniProt P42684); assay: HotSpot in vitro kinase radiometric assay; format: biochemical; details: 10uM, ATP 30 uM, Data 1, Data 2
T1 construct: purchased Reaction Biology (HotSpot contract assay)

[2] = biological target: T2, BLK (Homo sapiens, UniProt P51451); assay: HotSpot in vitro kinase radiometric assay; format: biochemical; details: 10uM, ATP 10 uM, Data 1, Data 2
T2 construct: purchased Reaction Biology (HotSpot contract assay)
Description: (§1) Accordingly, we selected five additional representative HSP90 inhibitors, at least one from each chemical class, including both synthetic inhibitors and natural products. […]
(§2) This radioisotope binding assay was designed to directly detect the true product without the use of modified substrates, coupling enzymes, or detection antibodies thus enabling to directly measure inhibition of catalytic activity. Test or control compounds were incubated with kinase, substrate, cofactors, and radioisotope-labeled ATP (32P-ɣ-ATP or 33P-ɣ-ATP). The reaction mixtures were then spotted onto filter papers, which bind the radioisotope-labeled catalytic product.

[3] = biological target: T3, LYN B (Homo sapiens, UniProt P07948); assay: HotSpot in vitro kinase radiometric assay; format: biochemical; details: 10uM, ATP 20 uM, Data 1, Data 2
T3 construct: purchased Reaction Biology (HotSpot contract assay)
Description: as §1, §2

[4] = biological target: T4, PDK4/PDKH4 (Homo sapiens, UniProt Q16654); assay: HotSpot in vitro kinase radiometric assay; format: biochemical; details: 10uM, ATP 30 uM, Data 1, Data 2
T4 construct: purchased Reaction Biology (HotSpot contract assay)
Description: as §1, §2

[5] = biological target: T5, c-Src (Homo sapiens, UniProt P12931); assay: HotSpot in vitro kinase radiometric assay; format: biochemical; details: 10uM, ATP 15 uM, Data 1, Data 2
T5 construct: purchased Reaction Biology (HotSpot contract assay)
T5 sequence (P12931 whole entry): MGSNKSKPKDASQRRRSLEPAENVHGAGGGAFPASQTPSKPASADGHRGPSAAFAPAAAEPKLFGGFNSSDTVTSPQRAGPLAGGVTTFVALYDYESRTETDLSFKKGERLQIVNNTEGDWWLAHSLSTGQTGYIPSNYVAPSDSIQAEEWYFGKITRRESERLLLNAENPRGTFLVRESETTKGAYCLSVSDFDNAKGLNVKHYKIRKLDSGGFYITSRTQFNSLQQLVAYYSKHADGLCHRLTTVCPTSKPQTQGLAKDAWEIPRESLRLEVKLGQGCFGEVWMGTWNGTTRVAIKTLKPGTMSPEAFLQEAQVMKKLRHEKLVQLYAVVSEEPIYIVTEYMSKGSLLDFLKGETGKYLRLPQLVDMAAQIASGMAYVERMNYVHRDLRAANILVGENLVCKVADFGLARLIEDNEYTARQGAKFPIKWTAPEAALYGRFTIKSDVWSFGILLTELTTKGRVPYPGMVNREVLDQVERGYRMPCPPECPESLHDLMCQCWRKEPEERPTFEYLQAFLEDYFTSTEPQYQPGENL
Description: as §1, §2

[6] = biological target: T6, PEAK1 (Homo sapiens, UniProt Q9H792); assay: HotSpot in vitro kinase radiometric assay; format: biochemical; details: 10uM, ATP 30 uM, Data 1, Data 2
T6 construct: purchased Reaction Biology (HotSpot contract assay)

[7] = biological target: T7, FGR (Homo sapiens, UniProt P09769); assay: HotSpot in vitro kinase radiometric assay; format: biochemical; details: 10uM, ATP 50 uM, Data 1, Data 2
T7 construct: purchased Reaction Biology (HotSpot contract assay)

[8] = biological target: T8, FYN (Homo sapiens, UniProt P06241); assay: HotSpot in vitro kinase radiometric assay; format: biochemical; details: 10uM, ATP 30 uM, Data 1, Data 2
T8 construct: purchased Reaction Biology (HotSpot contract assay)
T8 sequence (P06241 whole entry): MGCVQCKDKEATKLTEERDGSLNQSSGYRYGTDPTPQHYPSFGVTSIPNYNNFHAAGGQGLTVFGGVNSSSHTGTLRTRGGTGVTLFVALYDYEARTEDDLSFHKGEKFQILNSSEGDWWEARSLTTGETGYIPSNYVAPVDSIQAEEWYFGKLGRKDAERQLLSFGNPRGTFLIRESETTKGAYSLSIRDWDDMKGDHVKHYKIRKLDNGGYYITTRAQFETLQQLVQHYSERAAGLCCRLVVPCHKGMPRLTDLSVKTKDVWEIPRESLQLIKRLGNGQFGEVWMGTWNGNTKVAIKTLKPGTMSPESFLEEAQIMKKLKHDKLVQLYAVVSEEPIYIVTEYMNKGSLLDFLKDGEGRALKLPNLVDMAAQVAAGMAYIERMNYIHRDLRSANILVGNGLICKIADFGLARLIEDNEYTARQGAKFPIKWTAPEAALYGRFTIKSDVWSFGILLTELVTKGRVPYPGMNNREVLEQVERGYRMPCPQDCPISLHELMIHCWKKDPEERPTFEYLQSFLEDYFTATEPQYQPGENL

[9] = biological target: T9, PASK (Homo sapiens, UniProt Q96RG2); assay: HotSpot in vitro kinase radiometric assay; format: biochemical; details: 10uM, ATP 50 uM, Data 1, Data 2
T9 construct: purchased Reaction Biology (HotSpot contract assay)
From the text: (§3) Accordingly, we selected five additional representative HSP90 inhibitors, at least one from each chemical class, including both synthetic inhibitors and natural products.
(§4) Accordingly, we screened the hit compound and the two leads for kinase off-target inhibition using the 16-kinase panel and the same in vitro catalytic assay used previously.
as §2

[10] = biological target: T10, TRKA (Homo sapiens, UniProt P04629); assay: HotSpot in vitro kinase radiometric assay; format: biochemical; details: 10uM, ATP 100 uM, Data 1, Data 2
T10 construct: purchased Reaction Biology (HotSpot contract assay)
T10 sequence (P04629 33-796): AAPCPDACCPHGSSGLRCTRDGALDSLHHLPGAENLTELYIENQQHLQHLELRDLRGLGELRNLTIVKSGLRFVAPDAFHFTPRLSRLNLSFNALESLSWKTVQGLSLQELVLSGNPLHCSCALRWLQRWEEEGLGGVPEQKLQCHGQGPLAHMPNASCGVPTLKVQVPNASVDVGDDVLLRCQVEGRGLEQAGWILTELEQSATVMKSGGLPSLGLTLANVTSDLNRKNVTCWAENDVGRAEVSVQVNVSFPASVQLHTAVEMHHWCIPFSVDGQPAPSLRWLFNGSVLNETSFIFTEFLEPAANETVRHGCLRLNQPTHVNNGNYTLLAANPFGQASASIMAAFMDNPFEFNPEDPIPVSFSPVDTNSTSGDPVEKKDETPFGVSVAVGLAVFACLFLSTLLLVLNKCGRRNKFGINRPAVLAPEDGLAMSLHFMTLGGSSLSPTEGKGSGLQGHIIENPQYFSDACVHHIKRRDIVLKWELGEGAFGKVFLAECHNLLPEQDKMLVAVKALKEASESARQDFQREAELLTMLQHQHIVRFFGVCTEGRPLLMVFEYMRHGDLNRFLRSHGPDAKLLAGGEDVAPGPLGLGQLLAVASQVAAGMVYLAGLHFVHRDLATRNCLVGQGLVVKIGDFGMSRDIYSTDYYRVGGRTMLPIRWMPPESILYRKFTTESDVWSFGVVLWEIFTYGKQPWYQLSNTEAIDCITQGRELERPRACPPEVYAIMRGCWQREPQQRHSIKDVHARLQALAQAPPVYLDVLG
From the text: as §3, §4, §2

[11] = biological target: T11, TRKC (Homo sapiens, UniProt Q16288); assay: HotSpot in vitro kinase radiometric assay; format: biochemical; details: 10uM, ATP 100 uM, Data 1, Data 2
T11 construct: purchased Reaction Biology (HotSpot contract assay)
T11 sequence (Q16288 32-839): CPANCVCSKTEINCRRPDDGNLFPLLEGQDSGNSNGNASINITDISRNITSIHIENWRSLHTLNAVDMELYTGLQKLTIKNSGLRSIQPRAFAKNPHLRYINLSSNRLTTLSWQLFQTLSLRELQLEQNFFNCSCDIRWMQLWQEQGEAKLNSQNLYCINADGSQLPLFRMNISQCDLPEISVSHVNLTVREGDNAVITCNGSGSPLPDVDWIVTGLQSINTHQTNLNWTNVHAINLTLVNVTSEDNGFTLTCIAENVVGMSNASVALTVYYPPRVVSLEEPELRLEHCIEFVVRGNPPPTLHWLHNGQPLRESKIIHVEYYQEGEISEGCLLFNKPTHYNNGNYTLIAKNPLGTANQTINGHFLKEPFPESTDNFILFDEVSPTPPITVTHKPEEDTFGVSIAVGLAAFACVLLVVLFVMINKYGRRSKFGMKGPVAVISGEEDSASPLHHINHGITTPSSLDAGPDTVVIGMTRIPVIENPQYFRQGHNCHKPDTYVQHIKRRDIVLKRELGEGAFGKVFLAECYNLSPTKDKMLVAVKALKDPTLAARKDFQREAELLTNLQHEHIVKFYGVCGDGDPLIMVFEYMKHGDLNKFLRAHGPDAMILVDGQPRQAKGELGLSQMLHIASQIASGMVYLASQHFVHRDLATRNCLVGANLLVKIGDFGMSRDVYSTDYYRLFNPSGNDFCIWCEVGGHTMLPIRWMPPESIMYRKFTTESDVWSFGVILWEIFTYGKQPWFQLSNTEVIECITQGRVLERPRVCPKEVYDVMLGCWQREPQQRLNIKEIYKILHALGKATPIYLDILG

[12] = biological target: T12, LCK (Homo sapiens, UniProt P06239); assay: HotSpot in vitro kinase radiometric assay; format: biochemical; details: 10uM, ATP 15 uM, Data 1, Data 2
T12 construct: purchased Reaction Biology (HotSpot contract assay)

[13] = biological target: T13, YES/YES1 (Homo sapiens, UniProt P07947); assay: HotSpot in vitro kinase radiometric assay; format: biochemical; details: 10uM, ATP 50 uM, Data 1, Data 2
T13 construct: purchased Reaction Biology (HotSpot contract assay)

[14] = test system: 16-kinase panel; assay: 16-kinase panel screening, in vitro radiometric assay; format: biochemical, human; details: 10 μM
[15] = test system: HSP90AB1; design: method as in ChEMBL23 (accessed: 23/08/2018); details: average of reported values; ref ChEMBL23 (accessed: 23/08/2018); cited from earlier work
[16] = test system: TRAP1; design: method as in ChEMBL23 (accessed: 23/08/2018); details: average of reported values; ref ChEMBL23 (accessed: 23/08/2018); cited from earlier work
[17] = biological target: ABL1 (Homo sapiens, UniProt P00519); assay: HotSpot in vitro kinase radiometric assay; format: biochemical; design: purchased Reaction Biology (HotSpot contract assay); details: 10uM, ATP 40 uM, Data 1, Data 2
[18] = biological target: DDR1 (Homo sapiens, UniProt Q08345); assay: HotSpot in vitro kinase radiometric assay; format: biochemical; design: purchased Reaction Biology (HotSpot contract assay); details: 10uM, ATP 100 uM, Data 1, Data 2
Sequence of DDR1 (Q08345 19-913): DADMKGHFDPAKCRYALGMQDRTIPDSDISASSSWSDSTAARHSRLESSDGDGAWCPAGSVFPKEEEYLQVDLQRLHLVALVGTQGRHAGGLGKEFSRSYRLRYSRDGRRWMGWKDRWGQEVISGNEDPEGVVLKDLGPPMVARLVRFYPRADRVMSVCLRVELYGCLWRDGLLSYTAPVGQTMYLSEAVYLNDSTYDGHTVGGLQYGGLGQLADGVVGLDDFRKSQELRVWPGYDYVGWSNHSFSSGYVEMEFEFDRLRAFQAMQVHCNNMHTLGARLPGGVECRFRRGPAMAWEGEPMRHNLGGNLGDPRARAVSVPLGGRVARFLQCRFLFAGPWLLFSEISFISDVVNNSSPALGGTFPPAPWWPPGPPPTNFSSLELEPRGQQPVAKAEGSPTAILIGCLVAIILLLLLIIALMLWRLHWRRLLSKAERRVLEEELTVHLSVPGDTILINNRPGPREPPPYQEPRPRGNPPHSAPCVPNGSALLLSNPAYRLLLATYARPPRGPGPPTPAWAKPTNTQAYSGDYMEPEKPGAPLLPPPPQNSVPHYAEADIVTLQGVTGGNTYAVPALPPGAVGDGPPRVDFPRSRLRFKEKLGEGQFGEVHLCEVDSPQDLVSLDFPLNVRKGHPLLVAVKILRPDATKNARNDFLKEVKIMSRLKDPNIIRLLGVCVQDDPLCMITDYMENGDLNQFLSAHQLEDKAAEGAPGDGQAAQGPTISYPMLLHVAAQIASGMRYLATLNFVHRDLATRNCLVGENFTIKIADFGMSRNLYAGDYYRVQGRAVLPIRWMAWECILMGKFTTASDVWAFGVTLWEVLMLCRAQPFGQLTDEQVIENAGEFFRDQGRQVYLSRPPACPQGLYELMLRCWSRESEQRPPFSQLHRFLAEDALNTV

[19] = biological target: T14, PDK2/PDHK2 (Homo sapiens, UniProt Q15119); assay: HotSpot in vitro kinase radiometric assay; format: biochemical; details: PDK2/PDHK2, 10uM, ATP 15 uM, Data 1, Data 2
T14 construct: purchased Reaction Biology (HotSpot contract assay)
Description: as §1, §2

[20] = test system: 382 unique human kinases; assay: biochemical; format: biochemical; details: cutoff of >85% inhibition at 10 μM; luminespib and ganetespib large kinome panel, others 16-kinase panel
[21] = ABL2/ARG, read-out: % Enzyme Activity (relative to DMSO controls)
[22] = BLK, read-out: % Enzyme Activity (relative to DMSO controls)
[23] = LYN B, read-out: % Enzyme Activity (relative to DMSO controls)
[24] = PDK4/PDKH4, read-out: % Enzyme Activity (relative to DMSO controls)
[25] = c-Src, read-out: % Enzyme Activity (relative to DMSO controls)
[26] = PEAK1, read-out: % Enzyme Activity (relative to DMSO controls)
[27] = FGR, read-out: % Enzyme Activity (relative to DMSO controls)
[28] = FYN, read-out: % Enzyme Activity (relative to DMSO controls)
[29] = PASK, read-out: % Enzyme Activity (relative to DMSO controls)
[30] = TRKA, read-out: % Enzyme Activity (relative to DMSO controls)
[31] = TRKC, read-out: % Enzyme Activity (relative to DMSO controls)
[32] = LCK, read-out: % Enzyme Activity (relative to DMSO controls)
[33] = YES/YES1, read-out: % Enzyme Activity (relative to DMSO controls)
[34] = ABL1, read-out: % Enzyme Activity (relative to DMSO controls)
[35] = DDR1, read-out: % Enzyme Activity (relative to DMSO controls)

T1 sequence (P42684 whole entry): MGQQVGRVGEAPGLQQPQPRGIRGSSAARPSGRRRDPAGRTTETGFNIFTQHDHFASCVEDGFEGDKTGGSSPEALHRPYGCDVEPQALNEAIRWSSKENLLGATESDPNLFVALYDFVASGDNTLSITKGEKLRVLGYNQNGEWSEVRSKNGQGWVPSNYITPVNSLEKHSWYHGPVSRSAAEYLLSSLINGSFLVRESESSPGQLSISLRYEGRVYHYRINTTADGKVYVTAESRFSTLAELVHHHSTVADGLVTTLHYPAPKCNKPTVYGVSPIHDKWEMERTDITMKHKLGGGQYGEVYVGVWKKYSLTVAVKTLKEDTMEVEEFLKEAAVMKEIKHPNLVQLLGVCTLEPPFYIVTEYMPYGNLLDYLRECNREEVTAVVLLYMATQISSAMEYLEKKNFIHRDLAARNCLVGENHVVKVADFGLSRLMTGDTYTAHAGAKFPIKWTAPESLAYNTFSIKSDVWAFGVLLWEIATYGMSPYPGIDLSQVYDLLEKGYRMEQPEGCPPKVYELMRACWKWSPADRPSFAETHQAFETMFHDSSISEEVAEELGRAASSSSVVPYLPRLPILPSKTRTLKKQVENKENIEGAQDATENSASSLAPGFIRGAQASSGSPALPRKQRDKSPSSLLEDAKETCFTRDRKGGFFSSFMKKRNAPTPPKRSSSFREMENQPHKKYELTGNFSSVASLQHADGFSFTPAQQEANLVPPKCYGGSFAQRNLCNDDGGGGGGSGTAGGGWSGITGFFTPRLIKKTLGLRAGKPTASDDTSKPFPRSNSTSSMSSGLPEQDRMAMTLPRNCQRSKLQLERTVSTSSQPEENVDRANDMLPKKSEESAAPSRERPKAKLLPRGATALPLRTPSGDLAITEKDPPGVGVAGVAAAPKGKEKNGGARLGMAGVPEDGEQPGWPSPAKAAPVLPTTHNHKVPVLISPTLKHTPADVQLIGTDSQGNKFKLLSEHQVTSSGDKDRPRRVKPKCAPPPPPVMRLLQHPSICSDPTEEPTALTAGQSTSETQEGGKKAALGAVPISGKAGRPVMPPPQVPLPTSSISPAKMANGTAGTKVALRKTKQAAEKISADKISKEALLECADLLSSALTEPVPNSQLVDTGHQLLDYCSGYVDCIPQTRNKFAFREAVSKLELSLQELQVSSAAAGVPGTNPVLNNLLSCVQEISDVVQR

| Compound | remaining activity at 10 µM [1, 21] [%] | remaining activity at 10 µM [2, 22] [%] | remaining activity at 10 µM [3, 23] [%] | remaining activity at 10 µM [4, 24] [%] | remaining activity at 10 µM [5, 25] [%] | remaining activity at 10 µM [6, 26] [%] | remaining activity at 10 µM [7, 27] [%] | remaining activity at 10 µM [8, 28] [%] | remaining activity at 10 µM [9, 29] [%] | remaining activity at 10 µM [10, 30] [%] | remaining activity at 10 µM [11, 31] [%] | remaining activity at 10 µM [12, 32] [%] | remaining activity at 10 µM [13, 33] [%] | activity against the 16-kinase panel [14] | pActivity, HSP90AB1 [15] | pActivity, TRAP1 [16] | remaining activity at 10 µM [17, 34] [%] | remaining activity at 10 µM [18, 35] [%] | number of off-target kinases experimentally identified, In vitro binding (KinomeSCAN) [20] | other results |
| --- | --- | --- | --- | --- | --- | --- | --- | --- | --- | --- | --- | --- | --- | --- | --- | --- | --- | --- | --- | --- |
| COC1=C2C[C@@H](C)C[C@H](OC)[C@H](O)[C@@H](C)/C=C(\C)[C@H](OC(N)=O)[C@@H](OC)/C=C\C=C(/C)C(=O)NC(=CC1=O)C2=O [Geldanamycin] | 115 | 121 | 111 | 100 | 110 | 108 | 113 | 121 | 106 | 104 | 99.5 | 125 | 103 | inactive | 6.99 | 6.18 | 100 | 104 |  |  |
| CC(C)c1cc(C(=O)N2Cc3ccc(CN4CCN(C)CC4)cc3C2)c(O)cc1O [Onalespib] | 105 | 108 | 110 | 96.5 | 98.7 | 104 | 102 | 108 | 100 | 105 | 93 | 100 | 99.6 | inactive | 6.99 |  | 105 | 106 | 0 | % Enzyme Activity (relative to DMSO controls) ([1]; ABL2/ARG): 104.31%; % Enzyme Activity (relative to DMSO controls) ([2]; BLK): 107.96%; % Enzyme Activity (relative to DMSO controls) ([3]; LYN B): 109.85%; % Enzyme Activity (relative to DMSO controls) [19]: 75.57%; remaining activity at 10 µM ([19]; read-out: % Enzyme Activity (relative to DMSO controls)): 79.6%; % Enzyme Activity (relative to DMSO controls) ([4]; PDK4/PDKH4): 96.17%; % Enzyme Activity (relative to DMSO controls) ([5]; c-Src): 97.5%; % Enzyme Activity (relative to DMSO controls) ([6]; PEAK1): 102.81%; % Enzyme Activity (relative to DMSO controls) ([7]; FGR): 101.62%; % Enzyme Activity (relative to DMSO controls) ([8]; FYN): 106.38%; % Enzyme Activity (relative to DMSO controls) ([9]; PASK): 105.18%; % Enzyme Activity (relative to DMSO controls) ([10]; TRKA): 99.91%; % Enzyme Activity (relative to DMSO controls) ([11]; TRKC): 89.51%; % Enzyme Activity (relative to DMSO controls) ([12]; LCK): 100%; % Enzyme Activity (relative to DMSO controls) ([13]; YES/YES1): 99.53%; % Enzyme Activity (relative to DMSO controls) ([17]; ABL1): 103.3%; % Enzyme Activity (relative to DMSO controls) ([18]; DDR1): 87.99% |
| CC1(C)CC(=O)c2c(C(F)(F)F)nn(-c3ccc(C(N)=O)c(N[C@H]4CC[C@H](O)CC4)c3)c2C1 [SNX-2112] |  |  |  |  |  |  |  |  |  |  |  |  |  | inactive | 8.34 | 6.12 |  |  | 0 | remaining activity at 10 µM ([1]; read-out: % Enzyme Activity (relative to DMSO controls), ABL2/ARG): 114%; remaining activity at 10 µM ([2]; read-out: % Enzyme Activity (relative to DMSO controls), BLK): 116%; remaining activity at 10 µM ([3]; read-out: % Enzyme Activity (relative to DMSO controls), LYN B): 107%; remaining activity at 10 µM ([4]; read-out: % Enzyme Activity (relative to DMSO controls), PDK4/PDKH4): 94.8%; remaining activity at 10 µM ([5]; read-out: % Enzyme Activity (relative to DMSO controls), c-Src): 99%; remaining activity at 10 µM ([6]; read-out: % Enzyme Activity (relative to DMSO controls), PEAK1): 105%; remaining activity at 10 µM ([7]; read-out: % Enzyme Activity (relative to DMSO controls), FGR): 111%; remaining activity at 10 µM ([8]; read-out: % Enzyme Activity (relative to DMSO controls), FYN): 113%; remaining activity at 10 µM ([9]; read-out: % Enzyme Activity (relative to DMSO controls), PASK): 101%; remaining activity at 10 µM ([10]; read-out: % Enzyme Activity (relative to DMSO controls), TRKA): 107%; remaining activity at 10 µM ([11]; read-out: % Enzyme Activity (relative to DMSO controls), TRKC): 93%; remaining activity at 10 µM ([12]; read-out: % Enzyme Activity (relative to DMSO controls), LCK): 114%; remaining activity at 10 µM ([13]; read-out: % Enzyme Activity (relative to DMSO controls), YES/YES1): 101%; remaining activity at 10 µM ([17]; read-out: % Enzyme Activity (relative to DMSO controls), ABL1): 109%; remaining activity at 10 µM ([18]; read-out: % Enzyme Activity (relative to DMSO controls), DDR1): 93.4% |
